Experimental data from patent publication US20130053435A1, “Methods of Treating Alcohol Intoxication, Alcohol Use Disorders and Alcohol Abuse Which Comprises the Administration of Dihydromyricetin” (priority 2011, published 2013).

Tests used:
[1] = tested on: EtOH withdrawal-induced tolerance in rats; assay: EtOH withdrawal-induced tolerance measured by acute EtOH-induced LORR; type: in vivo, rat; conditions: for LORR duration after 48 hr withdrawal: test EtOH 3 g/kg i.p.; for acute EtOH-induced LORR after 48 hr withdrawal: FIG. 12B
Description: See Kakihana R, et al. (1966) Science 154(756):1574-1575). […] LORR duration ended when the animal was able to flip over three times in 30 s. LORR assays were blindly performed. LORR durations were reported as mean (min)±SEM.
After a 48 hr withdrawal period, EtOH-induced LORR assays (EtOH, 3 g/kg, i.p.) were performed.
48 hr after injection, rats were sub-divided into 3 groups to measure signs of EtOH withdrawal.
Tolerance to EtOH was measured with acute EtOH-induced LORR (in minutes, FIG. 12B). EtOH induced 63.6±7.0 LORR in the vehicle group subjects as compared to 10.8±3.8 LORR in EtOH group subjects.

GABAARs [2] = tested on: T1, GABAARs; assay: Whole-cell patch-clamp, DGCs in hippocampal slices, acute drug application; type: cell-based, rat
T1 construct: DHM-enhanced mIPSCs; other: control (vehicle) cultured neurons, DIV14; other: cultured neurons with EtOH exposure/withdrawal (60 mM, 30 min, 24 hr); EtOH-potentiated mIPSCs; effect on post-synaptic currents (mIPSCs); other: comparative experiments, rat hippocampal slices
Description: (§1) Transverse slices (400 μm) of dorsal hippocampus were obtained with a Vibratome (VT 100, Technical Products International, St. Louis, Mo.) and standard techniques known in the art. Slices were continuously perfused with artificial cerebrospinal fluid (ACSF).
(§2) Signals were recorded in voltage-clamp mode with a […] amplifier (Molecular Devices, Sunnyvale, Calif.). Whole cell access resistances were in the range of <25 MΩ before electrical compensation by about 70%. During voltage-clamp recordings, access resistance was monitored by measuring the size of the capacitative transient in response to a 5 mV step command and the data were abandoned if changes >20% were encountered. At least 10 min was allowed for equilibration of the pipette solution with the intracellular milieu before commencing mIPSC recordings.
(§3) Data were analyzed using the Clampfit (Version 9.0, Molecular Devices) and the MiniAnalysis Program (versions 6.0.7, Synaptosoft, Decatur, Ga.).
(§4) The MiniAnalysis program (Synaptosoft, Decatur, Ga.) was used to analyze mIPSCs. Itonic is the averaged baseline currents of a given recording period. Itonic amplitude was calculated as the difference between the holding currents measured before and after picrotoxin (100 μM) or bicuculline (10 μM). […] Briefly, the recordings were low-pass filtered off-line (Clampfit software) at 2 kHz. The mIPSCs were detected (Mini Analysis Program, version 6.0.7) with threshold criteria of 8 pA amplitude and 20 pA*ms charge transfer. The frequency of mIPSCs was determined from all automatically detected events in a given 100 s recording period. For kinetic analysis, only single event mIPSCs with a stable baseline, sharp rising phase (10 to 90% rise time), and exponential decay were chosen during visual inspection of the recording trace. Double and multiple peak mIPSCs were excluded. At least 100 individual mIPSC events were recorded under each experimental condition. The mIPSC kinetics was obtained from analysis of the averaged chosen single events aligned with half rise time in each cell. Decay time constants were obtained by fitting a double exponential to the falling phase of the averaged mIPSCs. Itonic magnitudes were obtained from the averaged baseline current of a given recording period. Itonic amplitude was calculated as the difference between the holding currents measured before and after the application of picrotoxin (50 μM) or bicuculline (10 μM). […] The investigator performing the recordings and mIPSC analysis was blind to the treatment (vehicle, EtOH, E+D, or D) that the rats received.
(§5) As performed previously, whole-cell patch-clamp recordings in dentate gyms granule cells (DGCs) from hippocampal slices in vitro were conducted.

GABAARs [3] = tested on: T2, GABAARs; assay: as above; type: cell-based, rat; conditions: in the presence of 60 mM EtOH, rat hippocampal slices
T2 construct: other: in the presence of 60 mM EtOH, rat hippocampal; shift of the GABA concentration-response curve
Description: as §1, §2, §3, §4, §5

GABAAR α4 subunit = assay: Cell-surface biotinylation and Western blot in cultured hippocampal neurons; type: cell-based, rat; conditions: 24 hr
Description: Western blots of the cultured neurons were performed and examined as described herein. Biotinylation assays for GABAARs of the cultured neurons were performed as described previously. See Chung W O, et al. (2000) Infect Immun 68(12):6758-6762. Briefly, the neurons in culture dishes were placed on ice and washed twice with ice cold PBS. Then the neurons were incubated for 30 min on ice with PBS containing 1 mg/ml sulfo-NHS-LC-biotin (ProteoChem). After quenching the biotin-reaction with Tris-buffered saline (TBS), neurons were lysed in 150 μl of modified RIPA-buffer (20 mM Tris-HCl (pH 7.5), 150 mM NaCl, 1 mM Na2 EDTA, 1 mM EGTA, 1% NP-40, 1% sodium deoxycholate, 2.5 mM sodium pyrophosphate, 1 mM b-glycerophosphate, 1 mM Na3VO4, and 1 μg/ml leupeptin). The homogenates were centrifuged for 15 min (14,000×g, 4° C.). An aliquot (10%) of the supernatant was removed to measure β-actin. The remaining supernatant was incubated with 60 μl of 50% neutravidin agarose (Pierce Chemical Company) for 4 hr at 4° C. and washed four times with lysis buffer. Agarose-bound proteins were taken up in 20 μl of SDS sample buffer and boiled. Western blots were performed as mentioned above.
The surface expression of α4 subunit in cultured neurons was measured using cell-surface biotinylation followed by Western blot analysis.

[4] = tested on: benzodiazepine site of GABAARs; assay: [3H]flunitrazepam binding in rat cortical membrane homogenates
Description: Standard procedures for preparation of rat cortical membranes for radioligand binding assays were conducted as previously described with modifications in speed and number of centrifugation and washes, and buffer compositions. […] Naïve rat cortex was dissected from brain and homogenized in 0.32 M sucrose, 10 mM HEPES buffer (pH 7.4), and centrifuged at 650×g, 4° C. The subsequent supernatant was centrifuged at 150,000×g to collect the desired membrane-containing pellet. The pellet was washed and centrifuged two more times, first using ice-cold water and second using membrane buffer containing 50 mM KH2PO4, 1 mM EDTA, 2 mM benzamidine HCl, 0.5 mM DTT, 0.1 mM benzethonium HCl, 0.01% bacitracin, 0.2 PMSF (pH 7.4), and the resulting pellet was frozen. On the day of binding assay, the pellet was homogenized in assay buffer containing 50 mM KH2PO4, 1 mM EDTA, 200 mM KCl (pH 7.4) and centrifuged, and resuspended in fresh assay buffer to a final protein concentration of 1 mg/ml. […] Specific binding was defined as the total amount bound (zero unlabeled ligand) minus the binding in the presence of 10 μM final concentration flurazepam (Sigma). Data was analyzed with GraphPad Prism 4.0 Software (San Diego, Calif.) to determine IC50 (One-site competition equation) and Hill slope (Sigmoidal Dose-Response equation). Experiments were conducted in triplicate.

## O=C1c2c(O)cc(O)cc2O[C@H](c2cc(O)c(O)c(O)c2)[C@H]1O [DHM, (2R,3R)-3,5,7-trihydroxy-2-(3,4,5-trihydroxyphenyl)-2,3-dihydrochromen-4-one]
[1]; DHM 1 mg/kg i.p. alone
  LORR duration after 48 hr withdrawal: 61 ± 4 min
[1]; DHM group
  acute EtOH-induced LORR after 48 hr withdrawal: 65.6 ± 8.4 min
[1]; EtOH+DHM (1 mg/kg) group
  acute EtOH-induced LORR after 48 hr withdrawal: 61.0 ± 3.8 min
[1]; i.p. EtOH 3 g/kg + DHM 1 mg/kg 30 min after EtOH
  LORR duration after 48 hr withdrawal: 61 ± 4 min
GABAARs [2]; DHM 0.3 μM, DGCs from naïve rats
  mIPSC total charge transfer (area): 615±22 fC
GABAARs [2]; DHM 1 μM, DGCs in hippocampal slices
  mIPSC area: 0.72±0.03 nC
GABAARs [2]; EtOH 60 mM + DHM 3 μM
  EtOH-potentiated mIPSCs: 0.70±0.02 nC
GABAARs [2]; comparative experiments, rat hippocampal slices
  effect on post-synaptic currents (mIPSCs): potentiates
GABAARs [3]
  block of EtOH potentiation of GABAAR-mediated Itonic and mIPSCs: dose-dependently blocks
GABAAR α4 subunit; neurons treated with DHM
  α4 surface expression: 125.0±27.3 % of control
GABAAR α4 subunit; neurons treated with EtOH+DHM
  α4 subunit surface expression: 123.0±8.4 % of control
[4]
  concentration at which significant inhibition of [3H]flunitrazepam binding starts: 0.3 µM
[4]; [3H]flunitrazepam 1 nM, rat cortex membranes, read-out: IC50, inhibition of [3H]flunitrazepam binding
  IC50: 4.36 µM
[4]; comparative experiments
  binding to GABAARs in [3H]flunitrazepam binding assay: bind GABAARs
